Legend:
[1] = target: T1, βA1-42 peptide (Homo sapiens, UniProt P05067); test: βA1-42 polymerization, Thioflavina T binding assay in 96 well plates; assay type: biochemical; details: concentrations between 0.8 and 100 μM, overnight at 37° C.; read-out: DE50 (the source's name)
T1 construct: βA1-42 peptide (1 mg/ml) was dissolved in H2O/CH3CN (1:1)
Experimental: The ST1641, ST1722, ST1859, ST1745, ST1800, ST1913 capability to counteract βA1-42 polymerization was evaluated using the Thioflavina “T” binding assay with the following procedure (M. A. Findeis, S. M. Molineaux; Methods in Enzymology 309, 487-488 (1999)): βA1-42 peptide (1 mg/ml) was dissolved in H2O/CH3CN (1:1), lyophilized, solubilized in DMSO+PBS and incubated at 37° C. for 8 days. The peptide was then sonicated and dissolved in PBS (1:5). 96 well plates were prepared with a solution of βA1-42 (40 μl/well) and ST testing compounds (50 μl/well, at concentrations between 0.8 and 100 μM). 50 μl of not aggregated βA1-42 was added after 15 minutes to each well and the plates were incubated overnight at 37° C. with agitation. 200 μl of a reaction mixture containing Thioflavina “T” (10 μM) and Na2HPO4×2H2O (50 μM) solution (pH 6.5) was then added to each well. The fluorescence was measured at 450 nm of excitation and 482 nm of emission with a 96 well fluorimetric plate reader within 60 seconds. At this experimental conditions fluorimetric measures were related to the amount of βA1-42 polymerized peptide.

[2] = system: primary cortical neuronal cultures; test: Inhibition of neurotoxicity induced by β-amyloid25-35 in primary neuronal cultures; assay type: cell-based, rat
Experimental: To verify the potential neuroprotective activity of sodium pamoate, primary cortical neuronal cultures obtained by microdissection of rat foetal brain at day 16-18 of gestation were used. The cerebral tissue was cultivated in the presence of foetal calf serum and the glial proliferation was inhibited by adding to the incubation medium the antimitotic agent cytosine arabinoside on days 3 and 5 (Andreoni et al. 1997 Exp. Neurology 148:281-287). The cell cultures were exposed to βA25-35 peptide for 5-7 days in the presence or absence of sodium pamoate. The neuroprotective action was evaluated in conditions of neurotoxicity induced by kainic acid to verify the specificity of action of sodium pamoate and its effective antiaggregant activity against the neurotoxic agent. The ability of sodium pamoate to protect the cells against degeneration was also evaluated in neuronal cells cultured in the absence of foetal calf serum in the culture medium. In this case, 24 hours after seeding, the medium was replaced with one without serum containing glutamine, insulin, transferrin, putrescin, progesterone, sodium selenite and Hepes.
Primary cultures of neurons of the […] were taken from the rat foetal brain on days 16-18 of gestation and cultured in foetal calf serum. On incubation days 3 and 5, glial proliferation was inhibited using cytosine arabinoside as an antimitotic agent.
The cultures were exposed to βA25-35 peptide at concentrations of 25 and 50 μM from the day following seeding for 5 to 7 days.
βA25-35 peptide was added to the cultures together with sodium pamoate which had equimolar concentrations or concentrations lower than those of the peptide itself.
The protection against neurotoxicity was evaluated using the colorimetric method and densitometric analysis with an image analyser.

[3] = Capability to cross in vivo the blood brain barrier, 14C-labelled compound; set-up: species or system rats; details: i.v.
Experimental: ST1859 inhibited “in vitro” the beta amyloid aggregation and to test its permeability through the intact blood-brain barrier, ST1859, labelled with ^14C(S. A. 50 μCi/mM), was injected i.v. into normal rats at the dose of 18 μCi/rat. The brain and blood were up-taken 30′ after the injection, the blood was then centrifuged (3000 RPM×15 min) and serum obtained was diluted 1:20 with water while brain tissue was homogenized 1:20 w/v in water. To each sample was then added 4 ml of scintillation liquid for aqueous samples The amount of radioactivity was counted with an automatic β-counter (Packard 4600). Data reported in DPM (table 1) were normalized vs. weight or volume of each sample.

[4] = target: T2, β-amyloid25-35 peptide (Homo sapiens, UniProt P05067); test: Antiaggregant effect on β-amyloid25-35 peptide (centrifugation, settled solid); assay type: biochemical; details: sodium pamoate 1 mM, βA25-35 1 mM, phosphate buffer 100 mM pH 5, 24 hours ambient temperature
T2 construct: aqueous solution of βA25-35 2 mM (cat. Bachem n° H-1192.0001); purchased Bachem H-1192.0001
Experimental: To 250 μl of a solution consisting of sodium pamoate 2 mM and phosphate buffer 200 mM pH 5 were added 250 μl of an aqueous solution of βA25-35 2 mM (cat. Bachem n° H-1192.0001). 500 μl of a solution of sodium pamoate 1 mM, βA25-35 1 mM and phosphate buffer 100 mM pH 5 were thus obtained. The same process was carried out for the control sample where sodium pamoate was not present. After 24 hours at ambient temperature, the sample and control were centrifuged at 12000 rpm for 20 minutes, separating the settled solids from the supernatants. To the settled solids were added 250 μL of water. After 3 hours at ambient temperature the samples were centrifuged again at a 12000 rpm for 20 minutes.

[5] = target: T1, βA1-42 peptide; test: Antiaggregant effect on β-amyloid1-42 peptide, thioflavin T binding, 5 days incubation; assay type: biochemical
Experimental: The antiaggregant effects of sodium pamoate on βA1-42 peptide were evaluated by measuring thioflavin T binding according to the following procedure. βA1-42 peptide (cat. Bachem n° H-1368.0500) at a concentration of 0.22 mM was incubated at 37° C. in Tris buffer 100 mM pH 7.4, alone or in the presence of sodium pamoate, for 5 days. The molar ratios of the peptide to sodium pamoate were generally 1:8, 1:4 and 1:2. The solution was centrifuged at 13000 rpm for 5 minutes and the supernatant was eliminated. The precipitate was washed with 500 μl of H2O and centrifuged at 13000 rpm for 5 minutes. In the precipitate, the aggregate in fibril form was detected with 600 μl of thioflavin T (ThT) 2 μM dissolved in glycine-NaOH buffer 50 mM, pH 9.4. After 5 minutes' incubation 500 μl of samples were transferred to a quartz cuvette and the fluorimetric signal was determined at 420 nm excitation and 480 nm emission in a spectrophotofluorimeter. In these conditions the fluorimetric signal is proportional to the amount of amyloid aggregate (Le Vine, Methods in Enzymology, vol. 309 pp 274-284).

[6] = target: T3, previously aggregated βA1-42 peptide (Homo sapiens, UniProt P05067); test: Dissolution of aggregates of preformed β-amyloid1-42 in fibril form, thioflavin T binding; assay type: biochemical; details: peptide:pamoate ratio 1:8
T3 construct: βA1-42 peptide (cat. Bachem n° H-1368.0500) at a concentration of 0.22 mM; purchased Bachem H-1368.0500
Experimental: This experiment was conducted in order to assess the antiaggregant capacity of sodium pamoate on previously aggregated βA1-42 peptide, according to the following procedure. βA1-42 peptide was left to aggregate for 48 hours at 37° C. in the conditions described in Example 6. Sodium pamoate was added (peptide:pamoate ratio 1:8).

[7] = target: T1, βA1-42 peptide; test: Resistance of β-amyloid1-42 peptide to trypsin digestion, HPLC; assay type: biochemical
Experimental: βA1-42 peptide was dissolved with 15 μl of NaOH 0.1 M. The solution was brought to pH 7.4 with 15 μl of TRIS buffer 100 mM to which were added 30 μl of buffer alone or 30 μl of buffer solution containing sodium pamoate. The final concentration of βA1-42 peptide was 0.22 mM, and that of sodium pamoate ranged from 0.055 to 1.76 mM, thus with a βA1-42 peptide:sodium pamoate ratio ranging from 4:1 to 1:8. The samples thus prepared were incubated at 37° C. for 5 days; in these conditions βA1-42 peptide formed aggregates in the form of fibrils modifying its structure from random-coil to β-sheet (Zagorski M. G. et al. 1999 “Methodological and Chemical Factors Affecting Amyloid β Peptide Amyloidogenicity” Methods in Enzymology 309:189-204). After 5 days' incubation, 24 μg of trypsin (Merck) were added to each sample, stirred and centrifuged for 1 minute at 13000 rpm; the samples were then left to incubate at 37° C. for 1 hour. When this period had elapsed, the mixture was centrifuged for 5 minutes at 13000 rpm, eliminating 50 μl of supernatant, and the precipitate was dissolved with 40 μl of HCOOH and 10 μl of H2O containing 0.1% of trifluoroacetic acid (TFA). At this point the sample was ready for quantitative HPLC analysis. The HPLC profile of the sample incubated with sodium pamoate was compared with that obtained with peptide alone, thereby quantifying the βA1-42 peptide.

[8] = system: cerebellar granules; test: Apoptosis of cerebellar granules induced by K+ deprivation; assay type: cell-based, rat; details: concentration of 10 μM
Experimental: Granules isolated from cerebellum of 8-day-old rats are differentiated biochemically and morphologically in approximately one week, becoming morphologically mature and with a glutamatergic interneuron phenotype (Gallo et al. 1982 PNAS 79:7919-7923). On depriving the culture medium of serum and reducing the extracellular concentration of potassium ions (25 mM) to the extent of bringing it down to a non-depolarising condition (5 mM), cell death by apoptosis is obtained in approximately 24 hours.
This experimental model made it possible to obtain a “self-fuelling” βA production system where neuronal apoptosis of the cerebellar granules brought about changes in the processing of the amyloid precursor APP, of such a nature as to favour the course of amyloidogenic metabolism. The increase in βA levels, in turn, favours programmed cell death. In this experimental setting, the potential efficacy of the study substances was measured in terms of cell survival at given times (24, 48 and 72 hours) after the reduction of KCl in the medium.
In primary cultures of cerebellar granules of 8-day-old rats, maintained in a culture medium containing KCl 25 mM, the cells were labelled with ^35S-methionine after 6 days in culture. […]
The protection against toxicity was assessed in terms of cell viability at 24, 48 and 72 hours.

[9] = 18 μCi/rat, 30′ after the injection, mean

T1 sequence (P05067 672-713): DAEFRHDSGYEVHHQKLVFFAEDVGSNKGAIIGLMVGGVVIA
T3 sequence (P05067 672-713): as above

Q: For CC(=O)O[C@H](CC(=O)Oc1ccc2ccccc2c1Cc1c(O)ccc2ccccc12)C[N+](C)(C)C [ST1745, (2R)-2-(acetyloxy)-4-({1-[(2-hydroxy-1-naphthyl)methyl]-2-naphthyl}oxy)-N,N,N-trimethyl-4-oxo-1-butanaminium chloride], which EC50 [1] is on record?
A: 8 µM

Q: Which EC50 [1] does the source give for CCN(CC)CCOC(=O)c1cc2ccccc2c(Cc2c(O)c(C(=O)OCCN(CC)CC)cc3ccccc23)c1O [ST1800, 2-({4-[(3-{[2-(diethylammonio)ethoxy]carbonyl}-2-hydroxy-1-naphthyl)methyl]-3-hydroxy-2-naphthoyl}oxy)-N,N-diethylethanaminium dichloride] here?
A: > 50 µM

Q: For CC(=O)O[C@H](CC(=O)Oc1c(C(=O)O)cc2ccccc2c1Cc1c(O)c(C(=O)O)cc2ccccc12)C[N+](C)(C)C [ST1722, (2R)-2-(acetyloxy)-4-({3-carboxy-1-[(3-carboxy-2-hydroxy-1-naphthyl)methyl]-2-naphthyl}oxy)-N,N,N-trimethyl-4-oxo-1-butanaminium chloride], which EC50 [1] is on record?
A: 90.3 µM

Q: Which EC50 [1] does the source give for NCC(=O)Oc1ccc2ccccc2c1Cc1c(O)ccc2ccccc12 [ST1913, 2-({1-[(2-hydroxy-1-naphthyl)methyl]-2-naphthyl}oxy)-2-oxoethanaminium chloride] here?
A: 7.8 µM

Q: For “βA25-35: β-amyloid25-35 peptide (cat. Bachem n° H-1192.0001), used as neurotoxic agent (GSNKGAIIGLM; Amyloid-beta protein 42; UniProt P05067 696-706, looked up, fragment) [reference compound]”, which percentage survival ([2]; βA25-35 50 μM alone) is on record?
A: 16 % S

Q: Which results are given for Oc1ccc2ccccc2c1Cc1c(O)ccc2ccccc12 [ST1859, 1,1′-methylene-di(2-naphthol)]?
A: EC50 [1]: 5.4 µM; Brain radioactivity [3, 9]: 35.643 DPM/g; Serum radioactivity [3, 9]: 29.776 DPM/ml; Serum/Brain [3, 9]: 0.833; ability to cross the blood brain barrier ([3]; normal rats): able to cross the blood brain barrier

Q: For O=C(O)c1cc2ccccc2c(Cc2c([O-])c(C(=O)O)cc3ccccc23)c1[O-].[Na+].[Na+] [ST1641, sodium pamoate], which “inhibition of aggregation of βA25-35 peptide in fibrils” value [4] is on record?
A: complete inhibition

Q: What about the “efficacy in reducing thioflavin T binding as a function of incubation time” value ([5]; from 1 to 5 days' incubation) of the same compound?
A: progressive increase in efficacy

Q: What about the “reduction in the formation of βA1-42 aggregates in the form of fibrils as compared to controls” value ([5]; βA1-42 0.22 mM, 37° C., 5 days, peptide:pamoate 1:8, 1:4, 1:2, dose-dependent) of the same compound?
A: ≤ 70%

Q: And the EC50 [1]?
A: 38.2 µM

Q: And the “activity in reducing thioflavin T binding” value ([6]; preformed aggregates)?
A: extremely active

Q: What about the “reduction in fluorescence as compared to controls” value ([6]; βA1-42 aggregated 48 hours at 37° C.) of the same compound?
A: 70%

Q: And the “increase of trypsin hydrolysis of βA1-42” value ([7]; highest dose, peptide:pamoate ratio 1:8)?
A: more than 50%

Q: What about the “increase of trypsin hydrolysis of βA1-42” value ([7]; lowest dose, peptide:pamoate ratio 1:4) of the same compound?
A: more than 40%

Q: And the “protection against the toxicity induced by βA25-35” value [2]?
A: complete protection

Q: What about the percentage survival ([2]; Sodium pamoate 25 μM + βA25-35 50 μM) of the same compound?
A: 100 % S

Q: And the percentage survival ([2]; Sodium pamoate 25 μM alone)?
A: 88 % S

Q: What about the “protection against the damage induced by amyloid forming during the apoptotic process” value [8] of the same compound?
A: 89%

Reference: patent US20080293812A1, “Use of pamoic acid or one of its derivatives, or one of its analogues, for the preparation of a medicament for the treatment of diseases characterised by deposits of amyloid aggregates” (Sigma-Tau Industrie Farmaceutiche Riunite S. P.A.,, priority 2000, published 2008)
